Assay results reported in patent US20130172306A1, “USE OF AN ESTROGEN DERIVATIVE FOR THE MANUFACTURE OF PHARMACEUTICAL COMPOSITIONS USEFUL FOR THE TREATMENT AND/OR PREVENTION OF PSYCHIATRIC DISEASES AND FOR THE TREATMENT AND PREVENTION OF SAID DISEASES” (priority 2010, published 2013).

Experiments:
[1] = tested on: SK—N—SH cells; settings: Green P S et al. 1997; cited from earlier work
[2] = tested on: ovariectomised female Sprague-Dawley rats; assay: novelty suppressed feeding (NSF) test; assay type: in vivo, rat; settings: through a stomach tube, tested two hours after administration, after 24 h food deprivation, versus vehicle, p<0.05
Procedure: In the course of our experiment the active agent 17-alpha-estradiol of formula (I) was tested in the animal model “novelty suppressed feeding” (NSF). NFS is a conflict test during which the subject of the test has to resolve a conflict between the stimulus of urgent food intake and the anxiety induced by a novel environment [Bodnoff S R et al.: The effects of chronic antidepressant treatment in an animal model of anxiety. Psychopharmacology (Berl) 95:298-302 (1988)]; Bodnoff S R et al.: A comparison of the effects of diazepam versus several typical and atypical anti-depressant drugs in an animal model of anxiety. Psychopharmacology (Berl) 97:277-279 (1989)]. The NSF model has widespread use in studying efficiency and mechanism of antidepressant drugs and in identification of new antidepressant drugs [Santarelli L et al.: Requirement of hippocampal neurogenesis for the behavioral effects of antidepressants. Science 301:805-809 (2003); Warner-Schmidt J L et al.: VEGF is an essential mediator of the neurogenic and behavioral actions of antidepressants. […]
At the beginning of the NSF test the test animal was placed in a corner of a 75×75×50 cm dark Plexiglas cage. […] The time from the start of the test to the beginning of food intake (first biting) was measured and recorded. Every test was recorded by means of a video camera suspended over the cage. […]

[3] = tested on: LAPC-4 prostate tumour cells; settings: cell cultures; Kuiao Y et al. 2007; cited from earlier work
[4] = tested on: LAPC-4 prostate tumour xenograft; settings: xenograft animals; Kuiao Y et al. 2007; cited from earlier work
[5] = tested on: depression; settings: preclinical and clinical studies from the literature; cited from earlier work

Row | Structure (SMILES) | neuroprotective effect [1] | time from the start of the test to the beginning of food intake (first biting) ([2]; A50 group: 50 μg/kg (b47 prints 50 mg/kg)) | time from the start of the test to the beginning of food intake (first biting) ([2]; A150 group: 150 μg/kg (b47 prints 150 mg/kg)) | proliferation of LAPC-4 prostate tumour cells [3] | increase of the tumour [4] | antidepressant effect [5]
1 | C[C@]12CC[C@@H]3c4ccc(O)cc4CC[C@H]3[C@@H]1CC[C@H]2O [17-alpha-estradiol, estra-1,3,5(10)-triene-3,17α-diol] | had a neuroprotective effect | shorter time than the control animals | shorter time than the control animals | inhibits proliferation | inhibits | 
2 | C[C@]12CC[C@@H]3c4ccc(O)cc4CC[C@H]3[C@@H]1CC[C@@H]2O [17-beta-estradiol] |  |  |  |  |  | no antidepressant effect
